Measurements as given in patent US9809589B2, “Crystal form of compound used as mineralocorticoid receptor antagonist and preparation method therefor” (KBP BIOSCIENCES CO., LTD., priority 2012, dated 2017).
Entries after “also recorded” stand apart in the source; their conditions may differ.

Tests used:
[1] = system: high salt induced Dahl salt sensitive (Dahl/SS) rats; test: Assay 3: depressurization effect (SBP, tail-cuff) in hypertension and kidney injury Dahl/ss rat model; type: in vivo; details: for SBP Before Administration (mean ± SD): baseline, solid dispersion with PVPK30 1:8, oral gavage twice a day; for SBP After Administration (on 41th day) (mean ± SD): oral gavage twice a day, 4% NaCl chow, solid dispersion with PVPK30 1:8
Procedure: (§1) Organ protection and depressurization effect of Crystal Form I of the present invention on the high salt induced Dahl salt sensitive (Dahl/SS) rats
(§2) The solid dispersion of Crystal Form I of the present invention (Crystal Form I of the present invention: PVPK30=1:8 (w/w)): the solid dispersion of Crystal Form I of the present invention was formulated with a suitable amount of sterile water for injection into suspensions having concentrations of 0.03, 0.10, 0.30, and 1.00 mg/mL. The suspension was prepared before use every day.
(§3) Experiment animals: male Dahl/ss rats of SPF (specific pathogen free)-grade, 8-9 weeks, purchased via Vital River Laboratories from HARLAN LABORATORIES, INC. After one week normal quarantine, rats in good sign and condition were used in the experiment.
(§4) Dahl/ss rats were randomly divided into six groups according to the blood pressure measurement before administration:
(§5) The in vivo pharmacodynamic activity of Crystal Form I of the present invention was evaluated by the hypertension and kidney injury Dahl/ss rat's model.
(§6) One week before the experiment, the blood pressures of rats were monitored twice by the tail-cuff blood pressure measurement so that the rats could accommodate the blood pressure monitoring operation. The blood pressures of rats were monitored once before starting the experiment and used as the basic blood pressures before administration. The rats were randomly divided into groups according to the measured blood pressures before administration. The model was established by feeding the rats with a high salt chow (AIN-93G experiment animal feed containing 4% NaCl) for 42 days, in which the rats were freely accessible to food and water. And rats in control group were fed with a low-sodium chow.
(§7) The rats in the treatment groups with Crystal Form I of the present invention were respectively administrated with Crystal Form I of the present invention in a dosage of 0.3, 1, 3, and 10 mg/kg/day. Rats in treatment groups were dosed orally via gavage twice a day by 5 mL/kg. The rats in the model group and in the normal control were administrated with the same volume of sterile water for injection.
Blood pressure (systolic blood pressure, abbreviated as SBP) measurement: The blood pressure was measured once each week for six weeks. The blood pressure changes were analyzed for each group.

[2] = system: high salt induced Dahl salt sensitive (Dahl/SS) rats; test: Assay 3: pathological examinations for kidney and heart (organ protection) in Dahl/ss rat model; type: in vivo; details: for left ventricular wall thickness (mean ± SD) / Kidney injury scores (Mean ± SD): 42 days high salt chow; for Kidney injury scores (Mean ± SD): HE stain
Procedure: as §1, §2, §3, §4, §5, §6, §7
The pathological examinations for kidney and heart: After the experiment, the rats were killed in a painless manner. The heart and the bilateral kidneys were collected for histopathology analysis. Kidney injury was scored and semi-quantitatively analyzed based on hematoxylin-eosin (HE) stain. The heart injury was analyzed by the measurement of left ventricular wall thickness.

[3] = Assay 1: stability (influencing factor tests) for Crystal Form I; HPLC content; type: physicochemical
Procedure: Assay 1: Stability for Crystal Form I of the Present Compound
Crystal Form I of the compound represented by formula (1): Crystal Form I was prepared according to Example 2.
(§8) (1) Crystal Form I of the compound represented by formula (1) was laid on a dry and clean watch glass, and kept at 60° C. for 10 days. Samples were taken respectively on Day 5 and Day 10. The contents of the relevant substance and the compound represented by formula (1) in the sample were measured, and compared with the contents of those in the sample taken on Day 0;
(§9) (2) Crystal Form I of the compound represented by formula (1) was packaged and sealed with a low-density polyethylene bag for pharmaceutical use in the inner layer and with a polyester/aluminum/polyethylene composite film for pharmaceutical package in the outer layer, and kept at 60° C. for 10 days. Samples were taken respectively on Day 5 and Day 10. The contents of the relevant substance and the compound represented by formula (1) in the sample were measured, and compared with the contents of those in the sample taken on Day 0.
as §8, with “High humidity test: Crystal” for “(1) Crystal”, “at 25°” for “at 60°”, “C. under a relative humidity of 90%±5%” for “C.”, “Day 0.” for “Day 0;”
as §8, with “Photostability test: Crystal” for “(1) Crystal”, “at an illuminance of 4500 L×±500 L× in an illumination box” for “at 60° C.”, “Day 0.” for “Day 0;”
(§10) The content of the compound represented by formula (1) was measured by using an external standard method in accordance with the High Performance Liquid Chromatography in Chinese Pharmacopoeia, Appendix V D, Edition 2010.
(§11) The content of the relevant substance was measured by using an area normalization method in accordance with the High Performance Liquid Chromatography in Chinese Pharmacopoeia, Appendix V D, Edition 2010.

[4] = Assay 2: stability (influencing factor tests) for Crystal Form II; HPLC content; type: physicochemical
Procedure: Stability for Crystal Form II of the present compound
Crystal Form II of the compound represented by formula (1): Crystal Form II was prepared according to Example 4.
as §8, with “II” for “I”, “Sample was” for “Samples were”, “taken” for “taken respectively”, “on” for “on Day 5 and”
as §9, with “II” for “I”, “Sample was” for “Samples were”, “taken” for “taken respectively”, “on” for “on Day 5 and”
(§12) High humidity test: Crystal Form II of the compound represented by formula (1) was laid on a dry and clean watch glass, and kept at 25° C. under a relative humidity of 90%±5% for 10 days. Sample was taken respectively on Day 10. The contents of the relevant substance and the compound represented by formula (1) in the sample were measured, and compared with the contents of those in the sample taken on Day 0.
as §12, with “Photostability” for “High humidity”, “an illuminance” for “25° C. under a relative humidity”, “5000 L×±500 L× in an illumination box” for “90%±5%”, “taken” for “taken respectively”
as §10, §11

[5] = 60° C.-(1), open watch glass, Day 5
[6] = 60° C.-(1), open watch glass, Day 10
[7] = 60° C.-(2), packaged and sealed, Day 5
[8] = 60° C.-(2), packaged and sealed, Day 10
[9] = high temperature, high humidity, illumination

SMILES: N#Cc1ccc(N2N=C3c4ccc(C(=O)N5CCC(O)CC5)nc4CC[C@@H]3[C@@H]2C2CCCC2)cc1Cl [Crystal Form I, 2-chloro-4-[(3S,3aR)-3-cyclopentyl-7-(4-hydroxypiperidin-1-carbonyl)-3,3a,4,5-tetrahydro-2H-pyrazolo[3,4-f]quinolin-2-yl]benzonitrile]
- SBP Before Administration (mean ± SD) ([1]; 0.3 mg/kg/day group): 140.8 ± 9.6 mmHg
- SBP After Administration (on 41th day) (mean ± SD) ([1]; 0.3 mg/kg/day): 166.5 ± 10.2 mmHg
- SBP Before Administration (mean ± SD) ([1]; 1 mg/kg/day group): 140.9 ± 9.5 mmHg
- SBP After Administration (on 41th day) (mean ± SD) ([1]; 1 mg/kg/day): 148.7 ± 9.6 mmHg
- SBP Before Administration (mean ± SD) ([1]; 3 mg/kg/day group): 141.0 ± 9.4 mmHg
- SBP After Administration (on 41th day) (mean ± SD) ([1]; 3 mg/kg/day): 141.6 ± 8.0 mmHg
- SBP Before Administration (mean ± SD) ([1]; 10 mg/kg/day group): 141.2 ± 9.2 mmHg
- SBP After Administration (on 41th day) (mean ± SD) ([1]; 10 mg/kg/day): 141.2 ± 9.6 mmHg
- Depressurization effect ([1]; 0.3-10 mg/kg/day oral, high salt Dahl/ss rats, listed as Crystal Form I of the present invention): significant depressurization effect; also recorded: remarkable depressurization effect
- left ventricular wall thickness (mean ± SD) ([2]; 0.3 mg/kg/day oral): 0.392 ± 0.024 cm
- Kidney injury scores (Mean ± SD) ([2]; 0.3 mg/kg/day oral): 2.02 ± 0.268
- left ventricular wall thickness (mean ± SD) ([2]; 1 mg/kg/day oral): 0.383 ± 0.017 cm
- Kidney injury scores (Mean ± SD) ([2]; 1 mg/kg/day oral): 1.25 ± 0.428
- left ventricular wall thickness (mean ± SD) ([2]; 3 mg/kg/day oral): 0.381 ± 0.026 cm
- Kidney injury scores (Mean ± SD) ([2]; 3 mg/kg/day oral): 1.84 ± 0.596
- left ventricular wall thickness (mean ± SD) ([2]; 10 mg/kg/day oral): 0.383 ± 0.019 cm
- Kidney injury scores (Mean ± SD) ([2]; 10 mg/kg/day oral): 1.71 ± 0.719
- Heart protection (left ventricular wall thickness) ([2]; compared with the model group): significantly decreased the left ventricular wall thickness
- Kidney protection (kidney injury score) ([2]; treatment groups vs model group, listed as Crystal Form I of the present invention): remarkable prevention from the increase in the kidney injury score; also recorded: kidney injury protection
- Stability compared with the amorphous form [3]: superior to the amorphous form in the stability
- Content of the compound represented by formula (1) [3, 5]: 98.9%
- Content of the relevant substance [3, 5]: 0.82%
- Content of the compound represented by formula (1) [3, 6]: 98.1%
- Content of the relevant substance [3, 6]: 0.97%
- Content of the compound represented by formula (1) [3, 7]: 99.7%
- Content of the relevant substance [3, 7]: 0.58%
- Content of the compound represented by formula (1) [3, 8]: 99.0%
- Content of the relevant substance [3, 8]: 0.60%
- Content of the compound represented by formula (1) ([3]; 4500 Lx ± 500 Lx, Day 5): 98.1%
- Content of the relevant substance ([3]; 4500 Lx ± 500 Lx, Day 5): 1.2%
- Content of the compound represented by formula (1) ([3]; 4500 Lx ± 500 Lx, Day 10): 97.0%
- Content of the relevant substance ([3]; 4500 Lx ± 500 Lx, Day 10): 2.0%
- Content of the compound represented by formula (1) ([3]; Day 0): 99.5%
- Content of the relevant substance ([3]; Day 0): 0.54%
- Content of the compound represented by formula (1) ([3]; RH90% ± 5%, 25° C., Day 5): 99.1%
- Content of the relevant substance ([3]; RH90% ± 5%, 25° C., Day 5): 0.56%
- Content of the compound represented by formula (1) ([3]; RH90% ± 5%, 25° C., Day 10): 99.0%
- Content of the relevant substance ([3]; RH90% ± 5%, 25° C., Day 10): 0.56%
- Change of contents of the relevant substance and the compound represented by formula (1) [3, 9]: substantially did not change

SMILES: N#Cc1ccc(N2N=C3c4ccc(C(=O)N5CCC(O)CC5)nc4CC[C@@H]3[C@@H]2C2CCCC2)cc1Cl [Crystal Form II, 2-chloro-4-[(3S,3aR)-3-cyclopentyl-7-(4-hydroxypiperidin-1-carbonyl)-3,3a,4,5-tetrahydro-2H-pyrazolo[3,4-f]quinolin-2-yl]benzonitrile]
- Stability compared with the amorphous form [4]: superior to the amorphous form in the stability
- Content of the compound represented by formula (1) [4, 6]: 96.2%
- Content of the relevant substance [4, 6]: 2.8%
- Content of the compound represented by formula (1) [4, 8]: 97.1%
- Content of the relevant substance [4, 8]: 2.7%
- Content of the compound represented by formula (1) ([4]; 5000 Lx ± 500 Lx, Day 10): 95.5%
- Content of the relevant substance ([4]; 5000 Lx ± 500 Lx, Day 10): 2.8%
- Content of the compound represented by formula (1) ([4]; Day 0): 96.2%
- Content of the relevant substance ([4]; Day 0): 2.6%
- Content of the compound represented by formula (1) ([4]; RH90% ± 5%, 25° C., Day 10): 96.9%
- Content of the relevant substance ([4]; RH90% ± 5%, 25° C., Day 10): 2.6%
- Change of contents of the relevant substance and the compound represented by formula (1) [4, 9]: substantially did not change
